Key:
[1] = target: Delta-type opioid receptor (Homo sapiens, UniProt P41143)
[2] = target: Prostaglandin G/H synthase 1 (Homo sapiens, UniProt P23219); format: functional
[3] = target: Sodium-dependent noradrenaline transporter (Homo sapiens, UniProt P23975)
[4] = target: T1, Alpha-1A adrenergic receptor (Homo sapiens, UniProt P35348); format: functional, cell-based
T1 sequence (P35348 whole entry): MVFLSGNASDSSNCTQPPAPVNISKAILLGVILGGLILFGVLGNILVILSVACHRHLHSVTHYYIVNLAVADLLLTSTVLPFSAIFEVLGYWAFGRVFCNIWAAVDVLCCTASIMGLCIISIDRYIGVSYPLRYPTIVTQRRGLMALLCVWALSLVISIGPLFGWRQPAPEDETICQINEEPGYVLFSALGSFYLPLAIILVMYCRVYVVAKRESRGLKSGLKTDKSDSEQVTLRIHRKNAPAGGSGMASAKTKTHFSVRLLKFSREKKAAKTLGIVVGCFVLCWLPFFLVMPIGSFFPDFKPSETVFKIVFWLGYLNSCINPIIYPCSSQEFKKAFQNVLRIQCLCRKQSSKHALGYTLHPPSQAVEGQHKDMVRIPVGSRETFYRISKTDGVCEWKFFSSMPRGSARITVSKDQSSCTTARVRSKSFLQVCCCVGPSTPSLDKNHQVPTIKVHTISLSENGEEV

[5] = target: T1, Alpha-1A adrenergic receptor; format: functional, cell-based; remark: listed apart in the source
[6] = target: T2, Muscarinic acetylcholine receptor M2 (Homo sapiens, UniProt P08172); format: functional, cell-based
T2 sequence (P08172 whole entry): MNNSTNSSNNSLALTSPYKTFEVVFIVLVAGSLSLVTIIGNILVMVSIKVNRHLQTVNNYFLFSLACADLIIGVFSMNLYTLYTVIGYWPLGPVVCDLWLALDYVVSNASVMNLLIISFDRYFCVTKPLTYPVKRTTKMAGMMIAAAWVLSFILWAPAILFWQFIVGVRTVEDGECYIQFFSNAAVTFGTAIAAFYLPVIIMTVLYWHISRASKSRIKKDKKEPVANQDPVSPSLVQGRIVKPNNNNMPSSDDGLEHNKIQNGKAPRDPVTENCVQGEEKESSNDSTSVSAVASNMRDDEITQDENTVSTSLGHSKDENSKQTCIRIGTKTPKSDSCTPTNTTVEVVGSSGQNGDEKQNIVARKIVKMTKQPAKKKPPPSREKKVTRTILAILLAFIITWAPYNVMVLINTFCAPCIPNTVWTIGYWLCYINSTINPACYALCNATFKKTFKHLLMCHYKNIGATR

[7] = target: Cannabinoid receptor 1 (Homo sapiens, UniProt P21554); format: functional, cell-based
[8] = target: Mu-type opioid receptor (Homo sapiens, UniProt P35372); assay: biochemical; format: functional
Also: assay procedure not described here.

Chain of Prostaglandin G/H synthase 1 (P23219 whole entry): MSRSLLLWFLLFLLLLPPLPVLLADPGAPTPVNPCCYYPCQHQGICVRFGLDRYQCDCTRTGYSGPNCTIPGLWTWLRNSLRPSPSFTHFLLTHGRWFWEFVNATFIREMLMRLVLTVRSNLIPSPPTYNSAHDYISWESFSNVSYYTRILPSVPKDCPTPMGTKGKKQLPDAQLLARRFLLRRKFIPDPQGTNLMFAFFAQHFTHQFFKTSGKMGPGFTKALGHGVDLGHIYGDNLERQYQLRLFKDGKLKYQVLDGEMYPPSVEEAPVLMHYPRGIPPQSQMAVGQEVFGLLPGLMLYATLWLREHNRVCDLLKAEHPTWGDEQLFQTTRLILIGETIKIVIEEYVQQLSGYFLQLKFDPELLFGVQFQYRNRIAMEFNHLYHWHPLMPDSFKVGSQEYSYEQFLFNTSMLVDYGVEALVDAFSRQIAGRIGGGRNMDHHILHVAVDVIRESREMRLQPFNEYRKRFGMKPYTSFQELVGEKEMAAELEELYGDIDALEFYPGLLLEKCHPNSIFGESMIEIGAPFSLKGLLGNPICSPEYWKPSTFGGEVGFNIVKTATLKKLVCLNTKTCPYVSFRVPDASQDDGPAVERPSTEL
Chain of Mu-type opioid receptor (P35372 whole entry): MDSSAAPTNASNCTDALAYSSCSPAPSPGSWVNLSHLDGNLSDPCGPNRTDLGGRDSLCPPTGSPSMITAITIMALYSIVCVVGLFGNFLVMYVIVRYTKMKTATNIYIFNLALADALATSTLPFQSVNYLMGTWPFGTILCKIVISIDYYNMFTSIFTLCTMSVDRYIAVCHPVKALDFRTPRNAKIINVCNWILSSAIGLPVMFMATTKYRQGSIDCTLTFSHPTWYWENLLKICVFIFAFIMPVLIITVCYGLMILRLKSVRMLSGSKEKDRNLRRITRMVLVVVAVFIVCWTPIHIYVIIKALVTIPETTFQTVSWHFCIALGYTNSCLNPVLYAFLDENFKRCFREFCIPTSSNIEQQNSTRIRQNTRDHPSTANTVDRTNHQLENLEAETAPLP
Chain of Cannabinoid receptor 1 (P21554 whole entry): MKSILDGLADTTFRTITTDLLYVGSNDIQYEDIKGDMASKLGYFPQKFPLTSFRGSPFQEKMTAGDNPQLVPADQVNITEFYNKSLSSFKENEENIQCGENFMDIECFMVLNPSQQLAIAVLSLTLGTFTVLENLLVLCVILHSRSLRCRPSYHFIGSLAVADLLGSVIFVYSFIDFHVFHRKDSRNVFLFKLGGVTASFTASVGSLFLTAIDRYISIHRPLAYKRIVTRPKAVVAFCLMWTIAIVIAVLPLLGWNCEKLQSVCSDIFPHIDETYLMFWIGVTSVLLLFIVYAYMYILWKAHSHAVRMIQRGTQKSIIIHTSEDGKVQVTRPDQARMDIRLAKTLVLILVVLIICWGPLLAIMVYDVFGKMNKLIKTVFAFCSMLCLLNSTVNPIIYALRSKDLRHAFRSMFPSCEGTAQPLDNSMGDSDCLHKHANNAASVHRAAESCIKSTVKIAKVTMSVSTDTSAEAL
Chain of Delta-type opioid receptor (P41143 whole entry): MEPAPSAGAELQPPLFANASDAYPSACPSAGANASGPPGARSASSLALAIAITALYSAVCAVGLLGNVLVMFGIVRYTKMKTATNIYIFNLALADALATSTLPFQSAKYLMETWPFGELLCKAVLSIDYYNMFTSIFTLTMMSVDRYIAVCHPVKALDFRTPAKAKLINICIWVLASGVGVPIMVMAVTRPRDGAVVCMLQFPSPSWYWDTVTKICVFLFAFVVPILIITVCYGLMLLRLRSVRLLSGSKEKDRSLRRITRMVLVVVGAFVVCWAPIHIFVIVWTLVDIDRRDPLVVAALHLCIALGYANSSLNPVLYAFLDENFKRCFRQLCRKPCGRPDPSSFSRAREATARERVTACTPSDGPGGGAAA
Chain of Sodium-dependent noradrenaline transporter (P23975 whole entry): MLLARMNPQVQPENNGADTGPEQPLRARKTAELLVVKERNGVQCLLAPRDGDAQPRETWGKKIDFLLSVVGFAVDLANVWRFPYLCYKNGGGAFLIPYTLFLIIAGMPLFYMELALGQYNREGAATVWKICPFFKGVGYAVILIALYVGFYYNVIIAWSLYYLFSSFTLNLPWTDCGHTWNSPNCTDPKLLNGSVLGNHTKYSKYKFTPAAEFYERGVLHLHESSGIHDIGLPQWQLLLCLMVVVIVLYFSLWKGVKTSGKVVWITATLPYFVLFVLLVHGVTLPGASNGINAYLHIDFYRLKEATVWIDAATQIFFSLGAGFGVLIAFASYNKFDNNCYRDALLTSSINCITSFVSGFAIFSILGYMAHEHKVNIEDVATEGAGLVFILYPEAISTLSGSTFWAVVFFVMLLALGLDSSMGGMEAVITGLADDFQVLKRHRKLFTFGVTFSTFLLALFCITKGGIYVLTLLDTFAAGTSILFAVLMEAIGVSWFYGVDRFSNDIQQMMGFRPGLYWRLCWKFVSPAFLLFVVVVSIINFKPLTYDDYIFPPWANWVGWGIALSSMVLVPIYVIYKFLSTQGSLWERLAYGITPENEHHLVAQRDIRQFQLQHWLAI

SMILES | AC50 [1] [µM] | AC50 [2] [µM] | AC50 [3] [µM] | AC50 [4] [µM] | AC50 [5] [µM] | AC50 [6] [µM] | AC50 [7] [µM] | AC50 [8] [µM]
C[N+]1(C)CCC(=C(c2ccccc2)c2ccccc2)CC1 | > 30 | – | – | – | – | – | – | –
Cc1cc2c(cc1S(N)(=O)=O)S(=O)(=O)CCC2 | – | > 30 | > 30 | > 30 | – | – | – | –
C[N+](C)(C)CCOP(=O)([O-])OC[C@H](O)CO | > 30 | – | – | – | > 30 | > 30 | > 30 | > 30
CN(C)Cc1nnc2n1-c1ccc(Cl)cc1C(c1ccccc1)=NC2 [ADINAZOLAM] | > 30 | – | – | – | – | > 10 | – | –
CN(C)C/C=C/C(=O)Nc1cc2c(Nc3ccc(F)c(Cl)c3)ncnc2cc1O[C@H]1CCOC1 [AFATINIB] | > 30 | – | – | – | > 30 | > 30 | > 30 | > 30
Cc1ccccc1-n1c(CF)nc2ccc(N)cc2c1=O [AFLOQUALONE] | > 30 | – | – | – | – | > 10 | – | > 30
CC1(C)S[C@@H]2[C@H](/N=C/N3CCCCCC3)C(=O)N2[C@H]1C(=O)O [AMDINOCILLIN] | – | > 30 | > 30 | > 30 | – | – | – | –
CCC1(c2ccc(N)cc2)CCC(=O)NC1=O (stereo unspecified) [AMINOGLUTETHIMIDE] | > 30 | – | – | – | > 30 | > 30 | > 30 | > 30
CC1=C(C(=O)OC(C)C)C(c2cccc([N+](=O)[O-])c2)C(C(=O)OC2CN(C(c3ccccc3)c3ccccc3)C2)=C(N)N1 (stereo unspecified) [AZELNIDIPINE] | > 30 | – | – | – | > 30 | > 30 | > 30 | > 30
CC(Cc1cccc(C(F)(F)F)c1)NCCOC(=O)c1ccccc1 (stereo unspecified) [BENFLUOREX] | > 30 | – | – | – | > 30 | – | – | 11
CCOC(=O)c1ccc(N)cc1 [BENZOCAINE] | > 30 | – | – | – | – | > 10 | – | –
CC(C)(Oc1ccc(CCNC(=O)c2ccc(Cl)cc2)cc1)C(=O)O [BEZAFIBRATE] | > 30 | – | – | – | > 30 | > 10 | > 30 | –
CC(O)(CS(=O)(=O)c1ccc(F)cc1)C(=O)Nc1ccc(C#N)c(C(F)(F)F)c1 (stereo unspecified) [BICALUTAMIDE] | > 10 | > 30 | > 30 | > 10 | > 30 | > 10 | > 30 | –
O=C(O)COCCN1CCN(C(c2ccccc2)c2ccc(Cl)cc2)CC1 (stereo unspecified) [CETIRIZINE] | > 30 | – | – | > 30 | > 30 | – | > 30 | –
C=C1CC[C@H](O)C/C1=C/C=C1\CCC[C@]2(C)[C@@H]([C@H](C)CCCC(C)C)CC[C@@H]12 [CHOLECALCIFEROL] | – | 12.3 | > 10 | > 30 | – | – | – | –
C[C@H](CCC(=O)O)[C@H]1CC[C@H]2[C@@H]3[C@H](O)C[C@@H]4C[C@H](O)CC[C@]4(C)[C@H]3C[C@H](O)[C@]12C [CHOLIC ACID] | – | – | – | > 30 | – | – | – | –
Cc1cn([C@H]2O[C@@H](CO)[C@H](O)[C@H]2F)c(=O)[nH]c1=O [CLEVUDINE] | – | > 30 | > 30 | > 30 | – | – | – | –
CC(=O)O[C@]1(C(C)=O)CC[C@H]2[C@@H]3C=C(Cl)C4=CC(=O)[C@@H]5C[C@@H]5[C@]4(C)[C@H]3CC[C@@]21C [CYPROTERONE ACETATE] | > 30 | > 30 | > 30 | > 30 | – | – | – | –
C/C=C(/C(=C/C)c1ccc(O)cc1)c1ccc(O)cc1 [DIENESTROL] | 21 | – | – | – | – | > 10 | – | > 30
CC(=O)[C@H]1CC[C@H]2[C@@H]3C=CC4=CC(=O)CC[C@@]4(C)[C@@H]3CC[C@]12C [DYDROGESTERONE] | – | > 30 | > 30 | > 30 | – | – | – | –
CN[C@]1(c2ccccc2Cl)CCCCC1=O [ESKETAMINE] | > 30 | – | – | – | > 30 | > 30 | – | > 30
CC(O)(P(=O)(O)O)P(=O)(O)O [ETIDRONIC ACID] | – | > 30 | > 30 | > 30 | – | – | – | –
Cc1ccc(S(=O)(=O)NC(=O)NC2CCCCC2)cc1 [GLYCYCLAMIDE] | – | > 30 | > 30 | > 30 | – | – | – | –

SMILES | AC50 [1] [µM] | AC50 [2] [µM] | AC50 [3] [µM] | AC50 [4] [µM] | AC50 [5] [µM] | AC50 [6] [µM] | AC50 [7] [µM] | AC50 [8] [µM]
COc1ccc([C@@H]2CC(=O)c3c(O)cc(O)cc3O2)cc1O [HESPERETIN] | > 30 | – | – | – | – | > 10 | – | > 30
CC(=O)OCC(=O)[C@@]1(O)CC[C@H]2[C@@H]3CCC4=CC(=O)CC[C@]4(C)[C@H]3[C@@H](O)C[C@@]21C [HYDROCORTISONE ACETATE] | – | > 30 | > 30 | > 30 | – | – | – | –
CNCCc1ccc(OC(=O)C(C)C)c(OC(=O)C(C)C)c1 [IBOPAMINE] | > 30 | – | – | – | 0.131 | > 30 | > 30 | > 30
CN(C)CCCN1c2ccccc2CCc2ccccc21 [IMIPRAMINE] | > 10 | – | – | – | > 30 | > 10 | > 30 | 28
CC(COc1ccccc1)NC(C)C(O)c1ccc(O)cc1 (stereo unspecified) [ISOXSUPRINE] | – | > 30 | 11.2 | > 30 | – | – | – | –
CCOC(=O)C1=C(C)NC(C)=C(C(=O)OCC)C1c1ccccc1/C=C/C(=O)OC(C)(C)C [LACIDIPINE] | > 30 | – | – | – | > 30 | > 30 | > 30 | > 30
CCC[C@@H]1C[C@@H](C(=O)N[C@@H]([C@H]2O[C@H](SC)[C@H](O)[C@@H](O)[C@H]2O)[C@@H](C)O)N(C)C1 [LINCOMYCIN] | > 30 | – | – | – | > 30 | > 10 | > 30 | > 30
COC(=O)C1=C(C)NC(C)=C(C(=O)OCCN2CCN(C(c3ccccc3)c3ccccc3)CC2)C1c1cccc([N+](=O)[O-])c1 (stereo unspecified) [MANIDIPINE 6300] | > 30 | – | – | – | > 30 | > 30 | 26 | > 30
C=C1c2cccc(O)c2C(=O)C2=C(O)[C@]3(O)C(=O)C(C(N)=O)=C(O)[C@@H](N(C)C)[C@@H]3[C@@H](O)[C@H]12 [METHACYCLINE] | > 30 | – | – | – | – | > 10 | – | –
CN(Cc1cnc2nc(N)nc(N)c2n1)c1ccc(C(=O)N[C@@H](CCC(=O)O)C(=O)O)cc1 [METHOTREXATE] | > 30 | – | – | – | > 30 | > 10 | > 30 | –
Cc1ccccc1N1C(=O)c2cc(S(N)(=O)=O)c(Cl)cc2NC1C (stereo unspecified) [METOLAZONE] | > 30 | – | – | – | – | > 10 | – | > 30
O=C(O)c1cccnc1Nc1cccc(C(F)(F)F)c1 [NIFLUMIC ACID] | > 30 | – | – | – | – | > 10 | – | > 30
CC[N+](C)(CC)CCOC(=O)C(O)(c1ccccc1)C1CCCCC1 (stereo unspecified) [OXYPHENONIUM] | – | > 30 | > 30 | > 30 | – | – | – | –
O=C1c2cccc3c2[C@H](CCC3)CN1[C@@H]1CN2CCC1CC2 [PALONOSETRON] | > 30 | – | – | – | > 30 | > 30 | – | > 30
CCC[C@H](N[C@@H](C)C(=O)N1[C@H](C(=O)O)C[C@@H]2CCCC[C@@H]21)C(=O)OCC [PERINDOPRIL] | – | > 30 | > 30 | > 30 | – | – | – | –
NNCCc1ccccc1 [PHENELZINE] | – | 0.5 | 10.8 | 11.5 | – | – | – | –
O=C1c2ccccc2C(=O)C1c1ccccc1 [PHENINDIONE] | > 30 | – | – | – | > 30 | > 10 | > 30 | –
N[C@@H](Cc1ccccc1)C(=O)O [PHENYLALANINE] | – | > 30 | > 30 | > 30 | – | – | – | –
CC(C)c1cccc(C(C)C)c1O [PROPOFOL] | > 30 | – | – | – | > 30 | > 30 | > 30 | –
CN[C@@H](C)[C@@H](O)c1ccccc1 [PSEUDOEPHEDRINE] | > 30 | – | – | – | – | > 10 | – | > 30
C[C@]12CCC(=O)C[C@@H]1CC[C@@H]1[C@@H]2CC[C@]2(C)[C@@H](O)CC[C@@H]12 [STANOLONE] | > 30 | – | – | – | > 30 | > 30 | – | > 30
Cc1ccc(C(=O)C(C)CN2CCCCC2)cc1 (stereo unspecified) [TOLPERISONE] | – | > 30 | > 30 | > 30 | – | – | – | –
COc1ccc2c(C(=S)N(C)CC(=O)O)cccc2c1C(F)(F)F [TOLRESTAT] | – | > 30 | > 30 | – | – | – | – | –

Reference: ChEMBL document CHEMBL5291721, “A preclinical secondary pharmacology resource illuminates target-adverse drug reaction associations of marketed drugs” (Nat Commun, 2023)
